Several values for one entry are separate records, joined by “and”; a condition that tells them apart may be missing. Identical values can stand only once.
Molecular target: ROCK2 (human) (UniProt O75116)
Experiment: Inhibition of ROCK2 Kinase Activity

ROCK2 (human), sequence (O75116 whole entry, looked up): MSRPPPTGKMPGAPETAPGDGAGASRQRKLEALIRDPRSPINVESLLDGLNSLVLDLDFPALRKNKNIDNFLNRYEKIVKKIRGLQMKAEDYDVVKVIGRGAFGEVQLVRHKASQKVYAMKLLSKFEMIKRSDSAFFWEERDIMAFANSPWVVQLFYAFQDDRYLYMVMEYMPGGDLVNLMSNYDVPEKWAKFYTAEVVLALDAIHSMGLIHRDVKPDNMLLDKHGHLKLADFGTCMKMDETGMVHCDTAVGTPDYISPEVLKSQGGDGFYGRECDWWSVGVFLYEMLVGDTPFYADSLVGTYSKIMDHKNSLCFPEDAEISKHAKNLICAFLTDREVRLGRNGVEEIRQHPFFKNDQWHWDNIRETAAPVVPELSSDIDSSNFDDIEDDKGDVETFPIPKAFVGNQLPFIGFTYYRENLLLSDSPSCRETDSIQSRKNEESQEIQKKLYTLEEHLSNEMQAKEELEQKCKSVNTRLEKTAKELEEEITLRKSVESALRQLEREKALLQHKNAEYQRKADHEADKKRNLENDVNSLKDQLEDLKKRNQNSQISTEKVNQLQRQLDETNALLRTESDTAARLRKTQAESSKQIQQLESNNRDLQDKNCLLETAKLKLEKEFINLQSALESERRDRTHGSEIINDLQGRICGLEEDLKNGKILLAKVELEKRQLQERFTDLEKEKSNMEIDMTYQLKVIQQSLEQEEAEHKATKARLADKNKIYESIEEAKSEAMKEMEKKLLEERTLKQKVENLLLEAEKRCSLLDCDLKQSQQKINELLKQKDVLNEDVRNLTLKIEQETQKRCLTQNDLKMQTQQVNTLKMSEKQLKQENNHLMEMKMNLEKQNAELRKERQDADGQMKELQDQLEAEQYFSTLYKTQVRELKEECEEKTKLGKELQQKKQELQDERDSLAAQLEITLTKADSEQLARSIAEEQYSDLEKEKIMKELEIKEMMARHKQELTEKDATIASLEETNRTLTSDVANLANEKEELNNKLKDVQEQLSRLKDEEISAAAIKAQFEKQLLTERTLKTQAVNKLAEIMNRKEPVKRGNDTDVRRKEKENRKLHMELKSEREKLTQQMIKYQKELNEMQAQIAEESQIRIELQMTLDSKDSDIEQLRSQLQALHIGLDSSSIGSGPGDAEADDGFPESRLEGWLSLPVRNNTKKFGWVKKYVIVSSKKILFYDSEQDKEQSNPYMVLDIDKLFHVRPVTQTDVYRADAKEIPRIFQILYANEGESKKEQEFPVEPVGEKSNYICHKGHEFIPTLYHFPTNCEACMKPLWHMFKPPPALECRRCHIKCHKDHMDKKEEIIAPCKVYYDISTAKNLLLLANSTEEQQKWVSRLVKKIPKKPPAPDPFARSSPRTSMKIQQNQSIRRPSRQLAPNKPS

Structure (SMILES) | IC50
COc1ccc(C(N)[C@H]2CC[C@@H](Oc3cc4cc[nH]c(=O)c4cc3Cl)CC2)cc1 (some centres undefined) | ≤ 10 nM
CCC(N)[C@]1(c2cccc(Br)c2)CC[C@H](Oc2cc3cc[nH]c(=O)c3cc2Cl)CC1 (some centres undefined) | ≤ 10 nM
CC[C@H](N)[C@]1(c2ccccc2)CC[C@H](Oc2cc3cc[nH]c(=O)c3cc2Cl)CC1 | ≤ 10 nM
CCC(N)C1(c2ccc(F)cc2)CC(Oc2cc3cc[nH]c(=O)c3cc2Cl)C1 (centres undefined) | 100 to 1000 nM
NC(c1ccc(F)cc1)C1CCC(Oc2cc3cc[nH]c(=O)c3cc2Cl)CC1 (centres undefined) | ≤ 10 nM
CC[C@@H](N)[C@]1(c2ccccc2)CC[C@H](Oc2cc3cc[nH]c(=O)c3cc2Cl)CC1 | ≤ 10 nM
CCC(N)(CC)C1CCC(Oc2cc3cc[nH]c(=O)c3cc2Cl)CC1 (centres undefined) | 100 to 1000 nM and 10 to 100 nM
CCC(N)C1CCC(Oc2cc3cc[nH]c(=O)c3cc2Cl)CC1 (centres undefined) | 10 to 100 nM
N[C@@H](c1ccccc1)[C@]1(c2ccccc2)CC[C@@H](Oc2cc3cc[nH]c(=O)c3cc2Cl)CC1 | 100 to 1000 nM
CC(N)(c1ccccc1)C1CCC(Oc2cc3cc[nH]c(=O)c3cc2Cl)CC1 (centres undefined) | 10 to 100 nM
CC(N)(C1CCCC1)C1CCC(Oc2cc3cc[nH]c(=O)c3cc2Cl)CC1 (centres undefined) | 100 to 1000 nM
CC(N)(c1ccc(F)cc1)C1CCC(Oc2cc3cc[nH]c(=O)c3cc2Cl)CC1 (centres undefined) | 10 to 100 nM
COc1ccc(C(C)(N)C2CCC(Oc3cc4cc[nH]c(=O)c4cc3Cl)CC2)cc1 (centres undefined) | 10 to 100 nM
CC[C@@H](N)[C@]1(c2ccccc2)CC[C@@H](Oc2cc3cc[nH]c(=O)c3cc2Cl)CC1 | 10 to 100 nM
Cc1ccc(C(N)C2CCC(Oc3cc4cc[nH]c(=O)c4cc3Cl)CC2)cc1 (centres undefined) | ≤ 10 nM and 10 to 100 nM
CC(N)(C1CCC(Oc2cc3cc[nH]c(=O)c3cc2Cl)CC1)C1CC1 (centres undefined) | 100 to 1000 nM
CCCC(C)(N)C1CCC(Oc2cc3cc[nH]c(=O)c3cc2Cl)CC1 (centres undefined) | 10 to 100 nM
CCC(N)[C@]1(c2ccc(C)c(OC)c2)CC[C@H](Oc2cc3cc[nH]c(=O)c3cc2Cl)CC1 (some centres undefined) | ≤ 10 nM
N[C@H](c1ccc(F)cc1)C1CCC(Oc2cc3cc[nH]c(=O)c3cc2Cl)CC1 (some centres undefined) | 100 to 1000 nM
COc1ccc(C(N)[C@H]2CC[C@H](Oc3cc4cc[nH]c(=O)c4cc3Cl)CC2)cc1 (some centres undefined) | 10 to 100 nM
NC(C1CCC(Oc2cc3cc[nH]c(=O)c3cc2Cl)CC1)C1CC1 (centres undefined) | 100 to 1000 nM
CC[C@@H](N)[C@]1(c2ccc(F)cc2)CC[C@H](Oc2cc3cc[nH]c(=O)c3cc2Cl)CC1 | ≤ 10 nM
N[C@@H](c1ccc(F)cc1)C1CCC(Oc2cc3cc[nH]c(=O)c3cc2Cl)CC1 (some centres undefined) | ≤ 10 nM
N[C@H](c1ccccc1)[C@]1(c2ccccc2)CC[C@@H](Oc2cc3cc[nH]c(=O)c3cc2Cl)CC1 | 10 to 100 nM

Reference: the Kinase Knowledgebase extract (Sharma et al. 2016)
